Earlier results on one compound are cited in PMC9190099, “Menthol carbonates as potent antiparasitic agents: synthesis and in vitro studies along with computer-aided approaches” (BMC Complementary Medicine and Therapies, 2022).

The structures appear in SMILES notation.

The test system of series [1] is Leishmania amazonensis promastigotes. Set-up: method as in earlier work. Particulars: ref 53 (Silva et al. 2017), read-out: EC50 against Leishmania amazonensis promastigotes; cited from earlier work.
The subject of series [2] is L. branziliensis. Set-up: method as in PMID 28509873. Particulars: previous studies; read-out: EC50 reported for L. branziliensis; cited from earlier work.

As to `C=CCc1ccc(O)c(OC)c1` [eugenol], the EC50 in series [1] is 505 µM; in series [2], 60.4 µM.

As a reminder, the EC50 is the midpoint of the concentration-response curve.
